# According to US20190328706A1, “COMPOSITIONS COMPRISING AN INTEGRIN INHIBITOR AND AGENTS WHICH INTERACT WITH A CHEMOKINE AND METHODS OF USE THEREOF” (Saint Louis University, priority 2016, published 2019):
# Where two headings read alike, the source gives them in different places.
# System: human G2 acute lymphoblastic leukemia (ALL) cells
# Assay: Flow cytometry cell-based assay: inhibition of soluble VCAM-1 binding to G2 ALL cells
# Conditions: for IC50: inhibition of sVCAM-1 binding to human G2 ALL cells, read-out: sVCAM-1 IC50; for inhibition of sVCAM-1 binding compared with other inhibitors / inhibition of sVCAM-1 binding compared with Firategrast: flow cytometry; for inhibition of sVCAM-1 binding compared with other inhibitors: FIG. 6, 7, 10, 11; for inhibition of sVCAM-1 binding compared with Firategrast: FIG. 5, 8, 9, 12
# Description: (§1) Compounds were tested for their ability to inhibit the binding of soluble VCAM-1 to human G2 acute lymphoblastic leukemia (ALL) cells. Briefly, G2 ALL cells are pre-incubated with increasing concentrations (0.001 to 1000 nM) of compounds for 30 minutes. Soluble VCAM/Fc chimera protein (R&D systems) is then added to the mixture and the cells incubated for an additional 30 minutes. Afterwards, cells are washed and VCAM-1 is detected using PE-conjugated secondary mAbs. In each experiment, an aliquot of cells will be stained with isotype control mAbs to serve as a negative control. The percentage of VCAM-1 binding cells was then determined by flow cytometry.
# as §1, with “(ALL) cells or 5TGMI myeloma” for “(ALL)”, “ALL or 5TGMI” for “ALL”
SMILES,IC50 (Table 12),IC50 (Table 8),other results
"COc1cc(C(N)=O)cc(OC)c1-c1ccc(C[C@H](NC(=O)c2c(Cl)cc(C(=O)O)cc2Cl)C(=O)O)cc1 [Cmpd 21, 4-{[(1S)-2-[4-(4-carbamoyl-2,6-dimethoxyphenyl)phenyl]-1-carboxyethyl]carbamoyl}-3,5-dichlorobenzoic acid]",72 nM,–,–
"COc1cc(CO)cc(OC)c1-c1ccc(C[C@H](NC(=O)c2c(Cl)cc(C(=O)O)cc2Cl)C(=O)O)cc1 [Cmpd 22, 4-{[(1S)-1-carboxy-2-{4-[4-(hydroxymethyl)-2,6-dimethoxyphenyl]phenyl}ethyl]carbamoyl}-3,5-dichlorobenzoic acid]",0.47 nM,–,–
"CCOCc1cc(OC)c(-c2ccc(C[C@H](NC(=O)c3c(Cl)cc(C(=O)O)cc3Cl)C(=O)O)cc2)c(OC)c1 [Cmpd 23, 4-{[(1S)-1-carboxy-2-{4-[4-(ethoxymethyl)-2,6-dimethoxyphenyl]phenyl}ethyl]carbamoyl}-3,5-dichlorobenzoic acid]",0.58 nM,–,–
"COc1cc(C(=O)O)cc(OC)c1-c1ccc(C[C@H](NC(=O)c2c(Cl)cc(C(=O)O)cc2Cl)C(=O)O)cc1 [Cmpd 24, 4-{4-[(2S)-2-carboxy-2-[(4-carboxy-2,6-dichlorophenyl)formamido]ethyl]phenyl}-3,5-dimethoxybenzoic acid]",218 nM,–,–
"COc1cc(C(C)(C)O)cc(OC)c1-c1ccc(C[C@H](NC(=O)c2c(Cl)cc(C(=O)O)cc2Cl)C(=O)O)cc1 [Cmpd 25, 4-{[(1S)-1-carboxy-2-{4-[4-(2-hydroxypropan-2-yl)-2,6-dimethoxyphenyl]phenyl}ethyl]carbamoyl}-3,5-dichlorobenzoic acid]",70 nM,–,–
"COc1cc(CF)cc(OC)c1-c1ccc(C[C@H](NC(=O)c2c(Cl)cc(C(=O)O)cc2Cl)C(=O)O)cc1 [Cmpd 26, 4-{[(1S)-1-carboxy-2-{4-[4-(fluoromethyl)-2,6-dimethoxyphenyl]phenyl}ethyl]carbamoyl}-3,5-dichlorobenzoic acid]",1.57 nM,–,–
"CCOCc1cc(OC)c(-c2ccc(C[C@H](NC(=O)[C@]3(C)CCCN3S(=O)(=O)c3cc(Cl)cc(Cl)c3)C(=O)O)cc2)c(OC)c1 [Cmpd 33, (S)-2-((S)-1-((3,5-dichlorophenyl)sulfonyl)-2-methylpyrrolidine-2-carboxamido)-3-(4′-(ethoxymethyl)-2′,6′-dimethoxy-[1,1′-biphenyl]-4-yl)propanoic acid]",2.47 nM,–,–
"CCOCc1cc(OC)c(-c2ccc(C[C@H](NC(=O)[C@]3(C)CCCN3S(=O)(=O)c3ccccc3)C(=O)O)cc2)c(OC)c1 [Cmpd 34, (S)-3-(4′-(ethoxymethyl)-2′,6′-dimethoxy-[1,1′-biphenyl]-4-yl)-2-((S)-2-methyl-1-(phenylsulfonyl)pyrrolidine-2-carboxamido)propanoic acid]",11.7 nM,–,–
COc1cc(COC2COC2)cc(OC)c1-c1ccc(C[C@H](NC(=O)[C@@H]2CCCN2S(=O)(=O)c2cc(Cl)cc(Cl)c2)C(=O)O)cc1 [Compound 009],–,–,IC50 (Table 10): 4.47 nM
COc1cccc(N2CCC[C@H]2C(=O)N[C@@H](Cc2ccc(-c3c(OC)cccc3OC)cc2)C(=O)O)c1 [Compound 822],–,–,IC50 (Table 10): 69 nM
COc1cccc(OC)c1-c1ccc(C[C@H](NC(=O)C2(c3ccccn3)CCCC2)C(=O)O)cc1 [Compound 825],–,–,IC50 (Table 10): 48 nM
"COc1cc(C(N)=O)cc(OC)c1-c1ccc(C[C@H](NC(=O)c2c(Cl)cc(C(=O)O)cc2Cl)C(=O)O)cc1 [Compound 1219, 4-{[(1S)-2-[4-(4-carbamoyl-2,6-dimethoxyphenyl)phenyl]-1-carboxyethyl]carbamoyl}-3,5-dichlorobenzoic acid]",–,72 nM,–
"COc1cc(CO)cc(OC)c1-c1ccc(C[C@H](NC(=O)c2c(Cl)cc(C(=O)O)cc2Cl)C(=O)O)cc1 [Compound 1220, 4-{[(1S)-1-carboxy-2-{4-[4-(hydroxymethyl)-2,6-dimethoxyphenyl]phenyl}ethyl]carbamoyl}-3,5-dichlorobenzoic acid]",–,0.47 nM,inhibition of sVCAM-1 binding compared with other inhibitors: more potent inhibitors than 823
"CCOCc1cc(OC)c(-c2ccc(C[C@H](NC(=O)c3c(Cl)cc(C(=O)O)cc3Cl)C(=O)O)cc2)c(OC)c1 [Compound 1221, 4-{[(1S)-1-carboxy-2-{4-[4-(ethoxymethyl)-2,6-dimethoxyphenyl]phenyl}ethyl]carbamoyl}-3,5-dichlorobenzoic acid]",–,0.58 nM,inhibition of sVCAM-1 binding compared with other inhibitors: more potent inhibitors than 823
"COc1cc(C(=O)O)cc(OC)c1-c1ccc(C[C@H](NC(=O)c2c(Cl)cc(C(=O)O)cc2Cl)C(=O)O)cc1 [Compound 1222, 4-{4-[(2S)-2-carboxy-2-[(4-carboxy-2,6-dichlorophenyl)formamido]ethyl]phenyl}-3,5-dimethoxybenzoic acid]",–,218 nM,–
"COc1cc(C(C)(C)O)cc(OC)c1-c1ccc(C[C@H](NC(=O)c2c(Cl)cc(C(=O)O)cc2Cl)C(=O)O)cc1 [Compound 1223, 4-{[(1S)-1-carboxy-2-{4-[4-(2-hydroxypropan-2-yl)-2,6-dimethoxyphenyl]phenyl}ethyl]carbamoyl}-3,5-dichlorobenzoic acid]",–,70 nM,–
"COc1cc(CF)cc(OC)c1-c1ccc(C[C@H](NC(=O)c2c(Cl)cc(C(=O)O)cc2Cl)C(=O)O)cc1 [Compound 1224, 4-{[(1S)-1-carboxy-2-{4-[4-(fluoromethyl)-2,6-dimethoxyphenyl]phenyl}ethyl]carbamoyl}-3,5-dichlorobenzoic acid]",–,1.57 nM,inhibition of sVCAM-1 binding compared with other inhibitors: more potent inhibitors than 823
"COCCOCc1cc(OC)c(-c2ccc(C[C@H](NC(=O)c3c(Cl)cc(C(=O)O)cc3Cl)C(=O)O)cc2)c(OC)c1 [Compound 1554, (S)-4-((1-carboxy-2-(2′,6′-dimethoxy-4′-((2-methoxyethoxy)methyl)-[1,1′-biphenyl]-4-yl)ethyl)carbamoyl)-3,5-dichlorobenzoic acid]",–,1.47 nM,inhibition of sVCAM-1 binding compared with Firategrast: greater inhibition of sVCAM-1 binding than did Firategrast
"CCCCCCOCc1cc(OC)c(-c2ccc(C[C@H](NC(=O)c3c(Cl)cc(C(=O)O)cc3Cl)C(=O)O)cc2)c(OC)c1 [Compound 1555, (S)-4-((1-carboxy-2-(4′-((hexyloxy)methyl)-2′,6′-dimethoxy-[1,1′-biphenyl]-4-yl)ethyl)carbamoyl)-3,5-dichlorobenzoic acid]",–,12.9 nM,inhibition of sVCAM-1 binding compared with Firategrast: greater inhibition of sVCAM-1 binding than did Firategrast
"COCCOCCOCCOCc1cc(OC)c(-c2ccc(C[C@H](NC(=O)c3c(Cl)cc(C(=O)O)cc3Cl)C(=O)O)cc2)c(OC)c1 [Compound 1570, (S)-4-((2-(4′-(2,5,8,11-tetraoxadodecyl)-2′,6′-dimethoxy-[1,1′-biphenyl]-4-yl)-1-carboxyethyl)carbamoyl)-3,5-dichlorobenzoic acid]",–,2.97 nM,inhibition of sVCAM-1 binding compared with Firategrast: greater inhibition of sVCAM-1 binding than did Firategrast
"CCCCCC(=O)OCc1cc(OC)c(-c2ccc(C[C@H](NC(=O)c3c(Cl)cc(C(=O)O)cc3Cl)C(=O)O)cc2)c(OC)c1 [Compound 1571, (S)-4-((1-carboxy-2-(4′-((hexanoyloxy)methyl)-2′,6′-dimethoxy-[1,1′-biphenyl]-4-yl)ethyl)carbamoyl)-3,5-dichlorobenzoic acid]",–,4.43 nM,inhibition of sVCAM-1 binding compared with Firategrast: greater inhibition of sVCAM-1 binding than did Firategrast
"CCOCc1cc(OC)c(-c2ccc(C[C@H](NC(=O)[C@]3(C)CCCN3S(=O)(=O)c3cc(Cl)cc(Cl)c3)C(=O)O)cc2)c(OC)c1 [Compound 1608, (S)-2-((S)-1-((3,5-dichlorophenyl)sulfonyl)-2-methylpyrrolidine-2-carboxamido)-3-(4′-(ethoxymethyl)-2′,6′-dimethoxy-[1,1′-biphenyl]-4-yl)propanoic acid]",–,2.47 nM,inhibition of sVCAM-1 binding compared with Firategrast: significantly more potent than Firategrast
"CCOCc1cc(OC)c(-c2ccc(C[C@H](NC(=O)[C@]3(C)CCCN3S(=O)(=O)c3ccccc3)C(=O)O)cc2)c(OC)c1 [Compound 1609, (S)-3-(4′-(ethoxymethyl)-2′,6′-dimethoxy-[1,1′-biphenyl]-4-yl)-2-((S)-2-methyl-1-(phenylsulfonyl)pyrrolidine-2-carboxamido)propanoic acid]",–,11.7 nM,inhibition of sVCAM-1 binding compared with Firategrast: significantly more potent than Firategrast
COc1cccc(OC)c1-c1ccc(C[C@H](NC(=O)c2c(Cl)cccc2Cl)C(=O)O)cc1C(C)O (some centres unmarked) [Compound 1632],–,–,IC50 (Table 10): 10 nM; inhibition of sVCAM-1 binding compared with Firategrast: significantly more potent than Firategrast
"COCCOCc1cc(OC)c(-c2ccc(C[C@H](NC(=O)[C@@H]3CCN3S(=O)(=O)c3ccccc3)C(=O)O)cc2)c(OC)c1 [Compound 1745, (S)-3-(2′,6′-dimethoxy-4′-((2-methoxyethoxy)methyl)-[1,1′-biphenyl]-4-yl)-2-((S)-1-(phenylsulfonyl)azetidine-2-carboxamido)propanoic acid]",–,3.7 nM,–
